{"source": "patent US8324248B2", "about": "“Piperidine derivatives as NK3 receptor antagonists” (Hoffmann-La Roche Inc., priority 2009, dated 2012)"}
{"target": "T1, recombinant human NK3 receptor (Homo sapiens, UniProt P29371)", "T1 construct": "expressed in transfected cells; host or cells: HEK293 cells (transient expression), membranes", "T1 sequence (P29371 1-465)": "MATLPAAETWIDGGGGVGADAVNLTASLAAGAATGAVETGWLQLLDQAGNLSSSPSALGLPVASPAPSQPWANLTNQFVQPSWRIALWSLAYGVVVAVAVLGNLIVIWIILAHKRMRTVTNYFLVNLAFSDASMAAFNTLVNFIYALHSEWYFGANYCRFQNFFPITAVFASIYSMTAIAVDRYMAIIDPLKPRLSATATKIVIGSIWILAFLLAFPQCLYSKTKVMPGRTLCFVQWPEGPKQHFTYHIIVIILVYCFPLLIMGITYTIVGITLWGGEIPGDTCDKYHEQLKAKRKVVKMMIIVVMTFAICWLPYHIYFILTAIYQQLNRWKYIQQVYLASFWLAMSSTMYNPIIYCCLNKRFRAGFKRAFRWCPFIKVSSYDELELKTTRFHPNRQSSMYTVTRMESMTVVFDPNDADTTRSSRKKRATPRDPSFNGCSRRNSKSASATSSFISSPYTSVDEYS", "test": "[3H]SR142801 competition binding assay, hNK3 receptor binding", "conditions": "[3H]SR142801 displacement; membranes from HEK293 cells transiently expressing recombinant human NK3 receptor; Ki by Cheng-Prussoff from IC50", "experimental": "The compounds were investigated in accordance with the tests given hereinafter. [^3H]SR142801 competition binding assay hNK3 receptor binding experiment were performed using [^3H]SR142801 (Catalog No. TRK1035, specific activity: 74.0 Ci/mmol, Amersham, GE Healthcare UK limited, Buckinghamshire, UK) and membrane isolated from HEK293 cells transiently expressing recombinant human NK3 receptor. After thawing, the membrane homogenates were centrifuged at 48,000×g for 10 min at 4° C., the pellets were resuspended in the 50 mM Tris-HCl, 4 mM MnCl2, 1 μM phosphoramidon, 0.1% BSA binding buffer at pH 7.4 to a final assay concentration of 5 μg protein/well. For inhibition experiments, membranes were incubated with [^3H]SR142801 at a concentration equal to KD value of radioligand and 10 concentrations of the inhibitory compound (0.0003-10 μM) (in a total reaction volume of 500 μl) for 75 min at room temperature (RT). At the end of the incubation, membranes were filtered onto unitfilter (96-well white microplate with bonded GF/C filter preincubated 1 h in 0.3% PEI+0.3% BSA, Packard BioScience, Meriden, Conn.) with a Filtermate 196 harvester (Packard BioScience) and washed 4 times with ice-cold 50 mM Tris-HCl, pH 7.4 buffer. Nonspecific binding was measured in the presence of 10 μM SB222200 for both radioligands. The radioactivity on the filter was counted (5 min) on a Packard Top-count microplate scintillation counter with quenching correction after addition of 45 μl of microscint 40 (Can berra Packard S. A., Zürich, Switzerland) and shaking for 1 h. Inhibition curves were fitted according to the Hill equation: y=100/(1+(x/IC50)^nH), where nH=slope factor using Excel-fit 4 software (Microsoft). IC50 values were derived from the inhibition curve and the affinity constant (Ki) values were calculated using the Cheng-Prussoff equation Ki=IC50/(1+[L]/KD) where [L] is the concentration of radioligand and KD is its dissociation constant at the receptor, derived from the saturation isotherm. All experiments were performed in duplicate and the mean±standard error (SEM) of the individual Ki values was calculated.", "units": {"Ki": "nM"}}
{"smiles": "CC(Nc1ccc(C#N)cn1)[C@H]1CCN(C(=O)C2CCN(c3ccc(C#N)cn3)CC2)C[C@@H]1c1ccc(Cl)cc1", "note": "(mixture of isomers) [Example 68, 4-{(3S,4S)-3-(4-Chloro-phenyl)-4-[(SR)-1-(5-cyano-pyridin-2-ylamino)-ethyl]-piperidine-1-carbonyl}-3,4,5,6-tetrahydro-2H-[1,2′]bipyridinyl-5′-carbonitrile]", "Ki": 1.4}
{"smiles": "C[C@H](Oc1ccc(Cl)cn1)[C@H]1CCN(C(=O)C2CCN(C(=O)C3(C)CC3)CC2)C[C@@H]1c1ccc(Cl)cc1", "note": "(racemic) [Example 5, (4-{(3SR, 4SR)-3-(4-Chloro-phenyl)-4-[(SR)-1-(5-chloro-pyridin-2-yloxy)-ethyl]-piperidine-1-carbonyl}-piperidin-1-yl)-(1-methyl-cyclopropyl)-methanone]", "Ki": 4.1}
{"smiles": "Cc1noc(-c2ccc(C(=O)N3CC[C@H](COc4ccc(Cl)cn4)[C@@H](c4ccc(F)c(F)c4)C3)cc2)n1", "note": "(racemic) [Example 31, [(3SR,4SR)-4-(5-Chloro-pyridin-2-yloxymethyl)-3-(3,4-difluoro-phenyl)-piperidin-1-yl]-[4-(3-methyl-[1,2,4]oxadiazol-5-yl)-phenyl]-methanone]", "Ki": 8.3}
{"smiles": "CC1(C(=O)N2CCC(C(=O)N3CC[C@H](COc4ccc(Cl)cn4)[C@@H](c4ccc(F)c(F)c4)C3)CC2)CC1", "note": "(racemic) [Example 32, {4-[(3SR,4SR)-4-(5-Chloro-pyridin-2-yloxymethyl)-3-(3,4-difluoro-phenyl)-piperidine-1-carbonyl]-piperidin-1-yl}-(1-methyl-cyclopropyl)-methanone]", "Ki": 5.8}
{"smiles": "N#Cc1ccc(N2CCC(C(=O)N3CC[C@H](COc4ccc(Cl)cn4)[C@@H](c4ccc(F)c(F)c4)C3)CC2)nc1", "note": "(relative stereo) [Example 33]", "Ki": 1.3}
{"smiles": "C[C@H](Oc1ccc(Cl)cn1)[C@H]1CCN(C(=O)C2CCN(C(=O)C3(C)CC3)CC2)C[C@@H]1c1ccc(Cl)cc1", "note": "(stereo in doubt) [Example 7, (4-{(3S,4S)-3-(4-Chloro-phenyl)-4-[(S)-1-(5-chloro-pyridin-2-yloxy)-ethyl]-piperidine-1-carbonyl}-piperidin-1-yl)-(1-methyl-cyclopropyl)-methanone]", "Ki": 2.6}
{"smiles": "Cc1cc(C(=O)N2CC[C@H]([C@H](C)Oc3ccc(Cl)cn3)[C@@H](c3ccc(Cl)cc3)C2)cnn1", "note": "[Example 10, {(3S,4S)-3-(4-Chloro-phenyl)-4-[(S)-1-(5-chloro-pyridin-2-yloxy)-ethyl]-piperidin-1-yl}-(6-methyl-pyridazin-4-yl)-methanone]", "Ki": 3.6}
{"smiles": "Cc1noc(-c2ccc(C(=O)N3CC[C@H]([C@H](C)Oc4ccc(Cl)cn4)[C@@H](c4ccc(Cl)cc4)C3)cc2)n1", "note": "[Example 11, {(3S,4S)-3-(4-Chloro-phenyl)-4-[(S)-1-(5-chloro-pyridin-2-yloxy)-ethyl]-piperidin-1-yl}-[4-(3-methyl-[1,2,4]oxadiazol-5-yl)-phenyl]-methanone]", "Ki": 1.8}
{"smiles": "Cc1nc(-c2ccc(C(=O)N3CC[C@H]([C@H](C)Oc4ccc(Cl)cn4)[C@@H](c4ccc(Cl)cc4)C3)cc2)no1", "note": "[Example 12, {(3S,4S)-3-(4-Chloro-phenyl)-4-[(S)-1-(5-chloro-pyridin-2-yloxy)-ethyl]-piperidin-1-yl}-[4-(5-methyl-[1,2,4]oxadiazol-3-yl)-phenyl]-methanone]", "Ki": 2.3}
{"smiles": "C[C@H](Oc1ccc(Cl)cn1)[C@H]1CCN(C(=O)C2CCN(c3ccc(C#N)cn3)CC2)C[C@@H]1c1ccc(Cl)cc1", "note": "[Example 13, 4-{(3S,4S)-3-(4-Chloro-phenyl)-4-[(S)-1-(5-chloro-pyridin-2-yloxy)-ethyl]-piperidine-1-carbonyl}-3,4,5,6-tetrahydro-2H-[1,2′]bipyridinyl-5′-carbonitrile]", "Ki": 0.3}
{"smiles": "C[C@H](Oc1ccc(Cl)cn1)[C@H]1CCN(C(=O)N2CCN(S(C)(=O)=O)CC2)C[C@@H]1c1ccc(Cl)cc1", "note": "[Example 14, {(3S,4S)-3-(4-Chloro-phenyl)-4-[(S)-1-(5-chloro-pyridin-2-yloxy)-ethyl]-piperidin-1-yl}-(4-methanesulfonyl-piperazin-1-yl)-methanone]", "Ki": 2.6}
{"smiles": "C[C@H](Oc1ccc(C(F)(F)F)cn1)[C@H]1CCN(C(=O)C2CCN(C(=O)C3(C)CC3)CC2)C[C@@H]1c1ccc(Cl)cc1", "note": "[Example 16, (4-{(3S,4S)-3-(4-Chloro-phenyl)-4-[(S)-1-(5-trifluoromethyl-pyridin-2-yloxy)-ethyl]-piperidine-1-carbonyl}-piperidin-1-yl)-(1-methyl-cyclopropyl)-methanone]", "Ki": 1.6}
{"smiles": "Cc1cc(C(=O)N2CC[C@H]([C@H](C)Oc3ccc(C(F)(F)F)cn3)[C@@H](c3ccc(Cl)cc3)C2)cnn1", "note": "[Example 17, {(3S,4S)-3-(4-Chloro-phenyl)-4-[(S)-1-(5-trifluoromethyl-pyridin-2-yloxy)-ethyl]-piperidin-1-yl}-(6-methyl-pyridazin-4-yl)-methanone]", "Ki": 5.6}
{"smiles": "Cc1noc(-c2ccc(C(=O)N3CC[C@H]([C@H](C)Oc4ccc(C(F)(F)F)cn4)[C@@H](c4ccc(Cl)cc4)C3)cc2)n1", "note": "[Example 18, {(3S,4S)-3-(4-Chloro-phenyl)-4-[(S)-1-(5-trifluoromethyl-pyridin-2-yloxy)-ethyl]-piperidin-1-yl}-[4-(3-methyl-[1,2,4]oxadiazol-5-yl)-phenyl]-methanone]", "Ki": 1.2}
{"smiles": "Cc1nc(-c2ccc(C(=O)N3CC[C@H]([C@H](C)Oc4ccc(C(F)(F)F)cn4)[C@@H](c4ccc(Cl)cc4)C3)cc2)no1", "note": "[Example 19, {(3S,4S)-3-(4-Chloro-phenyl)-4-[(S)-1-(5-trifluoromethyl-pyridin-2-yloxy)-ethyl]-piperidin-1-yl}-[4-(5-methyl-[1,2,4]oxadiazol-3-yl)-phenyl]-methanone]", "Ki": 1.4}
{"smiles": "C[C@H](Oc1ccc(C(F)(F)F)cn1)[C@H]1CCN(C(=O)C2CCN(c3ccc(C#N)cn3)CC2)C[C@@H]1c1ccc(Cl)cc1", "note": "[Example 20, 4-{(3S,4S)-3-(4-Chloro-phenyl)-4-[(S)-1-(5-trifluoromethyl-pyridin-2-yloxy)-ethyl]-piperidine-1-carbonyl}-3,4,5,6-tetrahydro-2H-[1,2′]bipyridinyl-5′-carbonitrile]", "Ki": 0.2}
{"smiles": "C[C@H](Oc1ccc(C(F)(F)F)cn1)[C@H]1CCN(C(=O)N2CCN(S(C)(=O)=O)CC2)C[C@@H]1c1ccc(Cl)cc1", "note": "[Example 21, {(3S,4S)-3-(4-Chloro-phenyl)-4-[(S)-1-(5-trifluoromethyl-pyridin-2-yloxy)-ethyl]-piperidin-1-yl}-(4-methanesulfonyl-piperazin-1-yl)-methanone]", "Ki": 4.7}
{"smiles": "C[C@H](Oc1ccc(C#N)cn1)[C@H]1CCN(C(=O)C2CCN(C(=O)C3(C)CC3)CC2)C[C@@H]1c1ccc(Cl)cc1", "note": "[Example 23, 6-((S)-1-{(3S,4S)-3-(4-Chloro-phenyl)-1-[1-(1-methyl-cyclopropanecarbonyl)-piperidine-4-carbonyl]-piperidin-4-yl}-ethoxy)-nicotinonitrile]", "Ki": 1.1}
{"smiles": "Cc1cc(C(=O)N2CC[C@H]([C@H](C)Oc3ccc(C#N)cn3)[C@@H](c3ccc(Cl)cc3)C2)cnn1", "note": "[Example 24, 6-{(S)-1-[(3S,4S)-3-(4-Chloro-phenyl)-1-(6-methyl-pyridazine-4-carbonyl)-piperidin-4-yl]-ethoxy}-nicotinonitrile]", "Ki": 8.7}
{"smiles": "Cc1noc(-c2ccc(C(=O)N3CC[C@H]([C@H](C)Oc4ccc(C#N)cn4)[C@@H](c4ccc(Cl)cc4)C3)cc2)n1", "note": "[Example 25, 6-((S)-1-{(3S,4S)-3-(4-Chloro-phenyl)-1-[4-(3-methyl-[1,2,4]oxadiazol-5-yl)-benzoyl]-piperidin-4-yl}-ethoxy)-nicotinonitrile]", "Ki": 1.5}
{"smiles": "Cc1nc(-c2ccc(C(=O)N3CC[C@H]([C@H](C)Oc4ccc(C#N)cn4)[C@@H](c4ccc(Cl)cc4)C3)cc2)no1", "note": "[Example 26, 6-((S)-1-{(3S,4S)-3-(4-Chloro-phenyl)-1-[4-(5-methyl-[1,2,4]oxadiazol-3-yl)-benzoyl]-piperidin-4-yl}-ethoxy)-nicotinonitrile]", "Ki": 5.1}
